# In US20170326199A1, “USE OF CASPASE-2 INHIBITORS TO TREAT AND PREVENT THE METABOLIC SYNDROME” (Duke University, priority 2015, published 2017):
# How the values were obtained:
# [1] = test system: human caspases (including caspase-2); details: broad-spectrum (pan-caspase) inhibitor; cited from earlier work
# [2] = test system: other classes of proteases or other enzymes or receptors other than caspases; details: selectivity; cited from earlier work
# [3] = target: T1, caspase-2 (Homo sapiens, UniProt P42575); details: cell-permeable peptide; cited from earlier work
# T1 sequence (P42575 1-452): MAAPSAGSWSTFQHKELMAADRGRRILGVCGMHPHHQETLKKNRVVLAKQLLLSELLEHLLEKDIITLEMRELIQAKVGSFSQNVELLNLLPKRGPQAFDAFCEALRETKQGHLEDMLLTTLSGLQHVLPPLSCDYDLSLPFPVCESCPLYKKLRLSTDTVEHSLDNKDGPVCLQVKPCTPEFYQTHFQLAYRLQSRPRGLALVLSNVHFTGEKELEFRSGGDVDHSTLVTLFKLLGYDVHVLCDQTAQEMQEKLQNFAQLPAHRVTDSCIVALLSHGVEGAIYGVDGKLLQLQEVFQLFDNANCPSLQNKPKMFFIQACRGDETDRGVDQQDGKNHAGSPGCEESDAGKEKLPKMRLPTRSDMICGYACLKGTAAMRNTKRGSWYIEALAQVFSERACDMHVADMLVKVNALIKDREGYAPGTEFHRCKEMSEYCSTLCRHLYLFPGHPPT
# [4] = test system: 3T3-L1 cells differentiated in adipocytes; assay: Palmitate-induced lipoapoptosis (caspase 3/7 activity, ApoTox-Glo Triplex Assay) in 3T3-L1 adipocytes; format: cell-based; details: palmitate 1 mM, 48 hours, inhibitor 20 uM, FIG. 4G
# Protocol: FIG. 4G. […] Left panel: apoptosis (caspase 3/7 activity) in adipocytes treated with Palmitate 1 mM, 48 hour±caspase-2 inhibitor, VDVAD-FMK 20 uM.
# 3T3-L1 cells were differentiated in adipocytes as previously described (Zebisch et al., 2012), and differentiation confirmed with Oil red staining. Adipocytes were treated with palmitate 1 mM with or without caspase-2 inhibitor Z-VDVAD-FMK (R&D Systems), 20 uM, for 48 hours. Apoptosis was measured using ApoTox-Glo Triplex Assay (Promega).
compound,measurement,setting,value
C[C@H](NC(=O)C(=O)Nc1ccccc1C(C)(C)C)C(=O)N[C@@H](CC(=O)O)C(=O)COc1c(F)c(F)cc(F)c1F [IDN-6556],activity against caspases,[1],activity against all tested human caspases (including caspase-2)
same,"inhibition of non-caspase proteases, enzymes or receptors",[2],no inhibition
VDVAD [available as a fluoromethylketone derivative],inhibition of caspase-2 activity,[3],irreversibly inhibits
Z-VDVAD-FMK,effect on palmitate-induced lipoapoptosis in adipocytes,[4],prevented
